In BindingDB's records for patent US9611261 (Amgen, 2017):
pIC50: −log10 of the molar value.

Target: Cathepsin D (Homo sapiens, UniProt P07339)
Experiment: In Vitro Enzymatic FRET Assay
Procedure: Recombinant Cat D was expressed in CHO cells. The assay buffer for CathepsinD is 0.05 M citrate pH 3.5, 10% DMSO final, 5 mM CHAPS. […] The assays are effectively started by the addition of different FRET substrates (20 nM for Cat D) and the combination is incubated for one hour. The FRET assay is terminated with by addition of Tris buffer, which raises the pH to neutrality, and the fluorescence is determined. The FRET substrate is a peptide with commercially available fluorophore and quencher, on opposite sides of the BACE cleavage site. […] Proteolytic cleavage of the FRET substrate releases quenching of fluorescence (Cat D excitation 500 nm and emission 580 nm).

Cathepsin D, sequence (P07339 65-162 limits assumed): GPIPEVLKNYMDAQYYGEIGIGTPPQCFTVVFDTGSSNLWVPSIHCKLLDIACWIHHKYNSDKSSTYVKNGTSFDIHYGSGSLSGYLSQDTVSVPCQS
Cathepsin D, sequence (P07339 169-412 limits assumed): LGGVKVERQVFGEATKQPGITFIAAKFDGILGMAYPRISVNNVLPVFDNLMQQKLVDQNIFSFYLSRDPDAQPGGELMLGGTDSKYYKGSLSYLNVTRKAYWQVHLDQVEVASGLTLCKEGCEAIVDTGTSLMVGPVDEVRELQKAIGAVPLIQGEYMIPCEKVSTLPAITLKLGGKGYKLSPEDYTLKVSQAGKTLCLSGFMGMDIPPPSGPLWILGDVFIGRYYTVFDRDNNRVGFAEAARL

Compound | pIC50
COc1cc(Cl)cnc1C(=O)Nc1ccc(F)c([C@@]2(CF)N=C(N)O[C@@H]3C[C@@H]32)c1 [US9611261, Example 297] | 3.08
NC1=N[C@@](c2cc(NC(=O)c3cnc(CCC#CC4CC4)cn3)ccc2F)(C(F)F)[C@H]2C[C@H]2O1 [US9611261, Example 411] | 3.44
